By IC50 is commonly meant the point on the concentration scale where inhibition reaches its midpoint.

The experiment relates to Aβ42 production. Kind of experiment: Quantification of Aβ peptide in culture of neurons from rat fetus brain (Aβ ELISA). The format is cell-based. The settings on record: Neuron, 72 h; rat primary neuronal culture (cerebral cortex, embryonic day 18 Wistar rats); medium collected three days after addition of the compound; Aβx-42 ELISA; read-out: Aβ42 production reducing effect IC50. As to the method:
Quantification of Aβ Peptide in Culture of Neurons from Rat Fetus Brain
(1) Rat Primary Neuronal Culture
Primary neuronal cultures were prepared from the cerebral cortex of embryonic day 18 Wistar rats (Charles River Japan, Yokohama, Japan). Specifically, the embryos were aseptically removed from pregnant rats under ether anesthesia. The brain was isolated from the embryo and immersed in an ice-cold L-15 medium (such as Invitrogen Corp. Cat #11415-064, Carlsbad, Calif., USA, or SIGMA L1518). The cerebral cortex was collected from the isolated brain under a stereoscopic microscope. The cerebral cortex fragments collected were enzymatically treated in an enzyme solution containing 0.25% trypsin (Invitrogen Corp. Cat #15050-065, Carlsbad, Calif., USA) and 0.01% DNase (Sigma D5025, St. Louis, Mo., USA) at 37° C. for 30 minutes to disperse the cells. Here, the enzymatic reaction was stopped by adding inactivated horse serum to the solution. The enzymatically treated solution was centrifuged at 1,500 rpm for five minutes to remove the supernatant. 5 to 10 mL of a medium was added to the resulting cell mass. Neurobasal medium (Invitrogen Corp. Cat #21103-049, Carlsbad, Calif., USA) supplemented with 2% B27 supplement (Invitrogen Corp. Cat #17504-044, Carlsbad, Calif., USA), 25 μM 2-mercaptoethanol (2-ME, WAKO Cat #139-06861, Osaka, Japan), 0.5 mM L-glutamine (Invitrogen Corp. Cat #25030-081, Carlsbad, Calif., USA), and Antibiotics-Antimycotics (Invitrogen Corp. Cat #15240-062, Carlsbad, Calif., USA) was used as the medium (Neurobasal/B27/2-ME). However, the above Neurobasal medium not supplemented with 2-ME (Neurobasal/B27) was used for the assay. The cells were redispersed by mild pipetting of the cell mass to which the medium was added. The cell dispersion was filtered through a 40-μm nylon mesh (Cell Strainer, Cat #35-2340, Becton Dickinson Labware, Franklin Lakes, N.J., USA) to remove the remaining cell mass, and thus a neuronal cell suspension was obtained. The neuronal cell suspension was diluted with the medium and then plated in a volume of 100 μL/well at an initial cell density of 5×10^5 cells/cm^2 in a 96-well polystyrene culture plate pre-coated with poly-L or D-lysine (Falcon Cat #35-3075, Becton Dickinson Labware, Franklin Lakes, N.J., USA coated with poly-L-lysine using the method shown below, or BIOCOAT™ cell environments Poly-D-lysine cell ware 96-well plate, Cat #35-6461, Becton Dickinson Labware, Franklin Lakes, N.J., USA). Poly-L-lysine coating was carried out as follows. 100 μg/mL of a poly-L-lysine (SIGMA P2636, St. Louis, Mo., USA) solution was aseptically prepared with a 0.15 M borate buffer (pH 8.5). […] of the solution was added to the 96-well polystyrene culture plate and incubated at room temperature for one or more hours or at 4° C. overnight or longer. Thereafter, the coated 96-well polystyrene culture plate was washed with sterile water four or more times, and then dried or rinsed with, for example, sterile PBS or medium, and used for cell plating. The plated cells were cultured in the culture plate at 37° C. in 5% CO2-95% air for one day. Then, the total amount of the medium was replaced with a fresh Neurobasal™/B27/2-ME medium, and then the cells were cultured for further three days.
The drug was added to the culture plate on Day 4 of culture as follows. The total amount of the medium was removed from the wells, and 180 μL/well of Neurobasal medium not containing 2-ME and containing 2% B-27 (Neurobasal/B27) was added thereto. A solution of the test compound in dimethyl sulfoxide (hereinafter abbreviated as DMSO) was diluted with Neurobasal/B27 to a concentration 10-fold higher than the final concentration. 20 μL/well of the dilution was added to and sufficiently mixed with the medium. The final DMSO concentration was 1% or less. Only DMSO was added to the control group.
The cells were cultured for three days after addition of the compound, and the total amount of the medium was collected. […]

Each structure is given as a SMILES string.

As for `C[C@H]1OC[C@]2(c3cc(NC(=O)c4ccc(Cl)cn4)ccc3F)N=C(N)SC[C@H]12` (relative stereo) [Example 56, N-[3-((4aS*,5R*,7aS*)-2-amino-5-meth 1-4a,5-dihydro-4H-furo[3,4-d][1,3]thiazin-7a-yl)-4-fluorophenyl]-5-chloropyridine-2-carboxamide], the IC50 worked out at 3 nM. The value for `C[C@H]1OC[C@]2(c3cc(NC(=O)c4cnc(OCF)cn4)ccc3F)N=C(N)SC[C@H]12` (relative stereo) [Example 57, N-[3-((4aS*,5R*,7aS*)-2-amino-5-methyl-4a,5-dihydro-4H-furo[3,4-d][1,3]thiazin-7a-yl)-4-fluorophenyl]-5-fluoromethoxypyrazine-2-carboxamide] was 3 nM. The figure for `C[C@H]1OC[C@]2(c3cc(NC(=O)c4cnc(C(F)F)cn4)ccc3F)N=C(N)SC[C@H]12` (relative stereo) [Example 58, N-[3-((4aS*,5R*,7aS*)-2-amino-5-methyl-4a,5-dihydro-4H-furo[3,4-d][1,3]thiazin-7a-yl)-4-fluorophenyl]-5-difluoromethylpyrazine-2-carboxamide] is 7 nM; for `C[C@H]1OC[C@]2(c3cc(NC(=O)c4ccc(OC(F)F)cn4)ccc3F)N=C(N)SC[C@H]12` (relative stereo) [Example 59, N-[3-((4aS*,5R*,7aS*)-2-amino-5-methyl-4a,5-dihydro-4H-furo[3,4-d][1,3]thiazin-7a-yl)-4-fluorophenyl]-5-difluoromethoxypyridine-2-carboxamide] it is 2 nM; for `C[C@H]1OC[C@]2(c3cc(NC(=O)c4ccncn4)ccc3F)N=C(N)SC[C@H]12` (relative stereo) [Example 60, N-[3-((4aS*,5R*,7aS*)-2-amino-5-methyl-4a,5-dihydro-4H-furo[3,4-d][1,3]thiazin-7a-yl)-4-fluorophenyl]-pyrimidine-4-carboxamide] it is 12 nM. The value for `CO[C@H]1CC[C@]2(c3cc(NC(=O)c4ccc(C#N)cn4)ccc3F)N=C(N)SC[C@H]12` (relative stereo) [Example 63, N-[3-((4aS*,5S*,7aS*)-2-amino-5-methoxy-4a,5,6,7-tetrahydro-4H-cyclopenta[d][1,3]thiazin-7a-yl)-4-fluorophenyl]-5-cyanopyridine-2-carboxamide] was 11 nM; that for `CO[C@H]1CC[C@]2(c3cc(NC(=O)c4cnc(OC(F)F)cn4)ccc3F)N=C(N)SC[C@H]12` (relative stereo) [Example 64, N-[3-((4aS*,5S*,7aS*)-2-amino-5-methoxy-4a,5,6,7-tetrahydro-4H-cyclopenta[d][1,3]thiazin-7a-yl)-4-fluorophenyl]-5-difluoromethoxypyrazine-2-carboxamide] was 8 nM; that for `CO[C@@H]1CC[C@]2(c3cc(NC(=O)c4ccc(C#N)cn4)ccc3F)N=C(N)SC[C@H]12` (relative stereo) [Example 65, N-[3-((4aS*,5R*,7aS*)-2-amino-5-methoxy-4a,5,6,7-tetrahydro-4H-cyclopenta[d][1,3]thiazin-7a-yl)-4-fluorophenyl]-5-cyanopyridine-2-carboxamide] was 38 nM. Regarding `NC1=N[C@@]2(c3cc(NC(=O)c4cnc(C(F)F)cn4)ccc3F)CCOC[C@H]2CS1` (relative stereo) [Example 79, N-[3-((4aS*,8aS*)-2-amino-4a,5,7,8-tetrahydro-4H-6-oxa-3-thia-1-azanaphthalen-8a-yl)-4-fluorophenyl]-5-difluoromethylpyrazine-2-carboxamide], the IC50 is 28 nM.

For `NC1=N[C@@]2(c3cc(NC(=O)c4cnc(OCF)cn4)ccc3F)CCOC[C@H]2CS1` (relative stereo) [Example 80, N-[3-((4aS*,8aS*)-2-amino-4a,5,7,8-tetrahydro-4H-6-oxa-3-thia-1-azanaphthalen-8a-yl)-4-fluorophenyl]-5-fluoromethoxypyrazine-2-carboxamide], the IC50 amounted to 8 nM. For `NC1=N[C@@]2(c3cc(NC(=O)c4ccc(OC(F)F)cn4)ccc3F)CCOC[C@H]2CS1` (relative stereo) [Example 81, N-[3-((4aS*,8aS*)-2-amino-4a,5,7,8-tetrahydro-4H-6-oxa-3-thia-1-azanaphthalen-8a-yl)-4-fluorophenyl]-5-difluoromethoxypyridine-2-carboxamide], the IC50 amounted to 14 nM.

Consider `CCO[C@H]1C[C@H]2CSC(N)=N[C@@]2(c2cc(NC(=O)c3ccc(C#N)cn3)ccc2F)C1` (relative stereo) [Example 89, (+)-N-[3-((4aR*,6S*,7aS*)-2-amino-6-ethoxy-4a,5,6,7-tetrahydro-4H-cyclopenta[d][1,3]thiazin-7a-yl)-4-fluorophenyl]-5-cyanopyridine-2-carboxamide], for which the IC50 was 3.2 nM. The value for `CCO[C@@H]1C[C@H]2CSC(N)=N[C@@]2(c2cc(NC(=O)c3ccc(C#N)cn3)ccc2F)C1` (relative stereo) [Example 90, (+)-N-[3-((4aR*,6R*,7aS*)-2-amino-6-ethoxy-4a,5,6,7-tetrahydro-4H-cyclopenta[d][1,3]thiazin-7a-yl)-4-fluorophenyl]-5-cyanopyridine-2-carboxamide] was 2.5 nM; that for `N#Cc1ccc(C(=O)Nc2ccc(F)c([C@]34C[C@H](F)C[C@H]3CSC(N)=N4)c2)nc1` (relative stereo) [Example 91, (+)-N-[3-((4aR*,6R*,7aS*)-2-amino-6-fluoro-4a,5,6,7-tetrahydro-4H-cyclopenta[d][1,3]thiazin-7a-yl)-4-fluorophenyl]-5-cyanopyridine-2-carboxamide] was 1.4 nM. Regarding `CO[C@H]1C[C@H]2CSC(N)=N[C@@]2(c2cc(NC(=O)c3cnc(C(F)F)cn3)ccc2F)C1` (relative stereo) [Example 92, (+)-N-[3-((4aR*,6S*,7aS*)-2-amino-6-methoxy-4a,5,6,7-tetrahydro-4H-cyclopenta[d][1,3]thiazin-7a-yl)-4-fluorophenyl]-5-difluoromethylpyrazine-2-carboxamide], the IC50 turned out to be 5 nM. The value for `CO[C@@H]1C[C@H]2CSC(N)=N[C@@]2(c2cc(NC(=O)c3cnc(C(F)F)cn3)ccc2F)C1` (relative stereo) [Example 93, (+)-N-[3-((4aR*,6R*,7aS*)-2-amino-6-methoxy-4a,5,6,7-tetrahydro-4H-cyclopenta[d][1,3]thiazin-7a-yl)-4-fluorophenyl]-5-difluoromethylpyrazine-2-carboxamide] was 3 nM; that for `N#Cc1ccc(C(=O)Nc2ccc(F)c([C@]34CC(F)(F)C[C@H]3CSC(N)=N4)c2)nc1` (relative stereo) [Example 94, (+)-N-[3-((4aR*,7aS*)-2-amino-6,6-difluoro-4a,5,6,7-tetrahydro-4H-cyclopenta[d][1,3]thiazin-7a-yl)-4-fluorophenyl]-5-cyanopyridine-2-carboxamide] was 2 nM; that for `CO[C@@H]1C[C@H]2CSC(N)=N[C@@]2(c2cc(NC(=O)c3cnc(OC(F)F)cn3)ccc2F)C1` (relative stereo) [Example 95] was 1 nM. The value for `CO[C@@H]1C[C@H]2CSC(N)=N[C@@]2(c2cc(NC(=O)c3cnc(OCF)cn3)ccc2F)C1` (relative stereo) [Example 96, (+)-N-[3-((4aR*,6R*,7aS*)-2-amino-6-methoxy-4a,5,6,7-tetrahydro-4H-cyclopenta[d][1,3]thiazin-7a-yl)-4-fluorophenyl]-5-fluoromethoxypyrazine-2-carboxamide] was 1 nM.

(Values after patent US20100317850A1 (priority 2008, published 2010).)
